# Results taken from patent US20100160445A1, “Synergistic Mixtures of OPP and DGH” (priority 2002, published 2010).
# Where a name gives a salt, the structure may show the parent alone.
# Test system: mildew
# Assay: Mildew resistance testing of caulking adhesives, ASTM D3273
# Format: cell-based
# Protocol: Testing was also completed on Franklin International Caulking Adhesives. The testing that was conducted was done in accordance with test ASTM D3273 as set forth in the Annual Book of ASTM Standards, Vol 06.01 which is hereby incorporated by reference. This is a standard test method for mildew known to those skilled in the art. When performing this test OPP was not tested by itself as it is known in the art of coatings that significant amounts of OPP are required, typically in the range of 2,000 to 10,000 ppm which is supported by EPA Registration No.'s 39967-11-67869 and EPA Registration No. 464-78-67869. An example of the significant amounts of OPP needed can also be seen in the OPP results in the paint testing shown above.
# • 10=No Mildew Growth, Excellent Mildew Resistance • 7-9=Trace Mildew Growth, Very Good Mildew Resistance • 6-5=Moderate Mildew Growth, Poor Mildew Resistance • 4-0=Heavy Mildew Growth, Failed
# [1] = Titebond Professional Drywall Adhesive, 500 ppm
# [2] = Titebond Professional Drywall Adhesive, 1000 ppm
# [3] = Titebond Professional Drywall Adhesive, 1500 ppm
# [4] = Titebond Professional Drywall Adhesive, 2000 ppm
# [5] = Titebond Professional Tub Surround Adhesive, 500 ppm
# [6] = Titebond Professional Tub Surround Adhesive, 1000 ppm
# [7] = Titebond Professional Tub Surround Adhesive, 1500 ppm
# [8] = Titebond Professional Tub Surround Adhesive, 2000 ppm
# [9] = Titebond Solvent Free Construction Adhesive, 500 ppm
# [10] = Titebond Solvent Free Construction Adhesive, 1000 ppm
# [11] = Titebond Solvent Free Construction Adhesive, 1500 ppm
# [12] = Titebond Solvent Free Construction Adhesive, 2000 ppm
# [13] = Titebond Solvent Free Fast Grab FRP Adhesive, 500 ppm
# [14] = Titebond Solvent Free Fast Grab FRP Adhesive, 1000 ppm
# [15] = Titebond Solvent Free Fast Grab FRP Adhesive, 1500 ppm
# [16] = Titebond Solvent Free Fast Grab FRP Adhesive, 2000 ppm
# [17] = Titebond Solvent Free Subfloor Adhesive, 500 ppm
# [18] = Titebond Solvent Free Subfloor Adhesive, 1000 ppm
# [19] = Titebond Solvent Free Subfloor Adhesive, 1500 ppm
# [20] = Titebond Solvent Free Subfloor Adhesive, 2000 ppm
smiles,measurement,setting,value
"CCCCCCCCCCCCNC(=N)N [DGH, Dodecylguanidine Hydrochloride]",Mildew Results 7 Days,[1],10
same,Mildew Results 14 Days,[1],10
same,Mildew Results 21 Days,[1],10
same,Mildew Results 28 Days,[1],10
same,Mildew Results 7 Days,[2],10
same,Mildew Results 14 Days,[2],10
same,Mildew Results 21 Days,[2],10
same,Mildew Results 28 Days,[2],10
same,Mildew Results 7 Days,[3],10
same,Mildew Results 14 Days,[3],10
same,Mildew Results 21 Days,[3],10
same,Mildew Results 28 Days,[3],10
same,Mildew Results 7 Days,[4],10
same,Mildew Results 14 Days,[4],10
same,Mildew Results 21 Days,[4],10
same,Mildew Results 28 Days,[4],10
same,Mildew Results 7 Days,[5],10
same,Mildew Results 14 Days,[5],10
same,Mildew Results 21 Days,[5],10
same,Mildew Results 28 Days,[5],10
same,Mildew Results 7 Days,[6],10
same,Mildew Results 14 Days,[6],10
same,Mildew Results 21 Days,[6],10
same,Mildew Results 28 Days,[6],10
same,Mildew Results 7 Days,[7],10
same,Mildew Results 14 Days,[7],10
same,Mildew Results 21 Days,[7],10
same,Mildew Results 28 Days,[7],10
same,Mildew Results 7 Days,[8],10
same,Mildew Results 14 Days,[8],10
same,Mildew Results 21 Days,[8],10
same,Mildew Results 28 Days,[8],10
same,Mildew Results 7 Days,[9],10
same,Mildew Results 14 Days,[9],10
same,Mildew Results 21 Days,[9],10
same,Mildew Results 28 Days,[9],10
same,Mildew Results 7 Days,[10],10
same,Mildew Results 14 Days,[10],10
same,Mildew Results 21 Days,[10],10
same,Mildew Results 28 Days,[10],10
same,Mildew Results 7 Days,[11],10
same,Mildew Results 14 Days,[11],10
same,Mildew Results 21 Days,[11],10
same,Mildew Results 28 Days,[11],10
same,Mildew Results 7 Days,[12],10
same,Mildew Results 14 Days,[12],10
same,Mildew Results 21 Days,[12],10
same,Mildew Results 28 Days,[12],10
same,Mildew Results 7 Days,[13],10
same,Mildew Results 14 Days,[13],10
same,Mildew Results 21 Days,[13],0
same,Mildew Results 28 Days,[13],0
same,Mildew Results 7 Days,[14],10
same,Mildew Results 14 Days,[14],10
same,Mildew Results 21 Days,[14],0
same,Mildew Results 28 Days,[14],0
same,Mildew Results 7 Days,[15],10
same,Mildew Results 14 Days,[15],10
same,Mildew Results 21 Days,[15],10
same,Mildew Results 28 Days,[15],9
same,Mildew Results 7 Days,[16],10
same,Mildew Results 14 Days,[16],10
same,Mildew Results 21 Days,[16],10
same,Mildew Results 28 Days,[16],10
same,Mildew Results 7 Days,[17],7
same,Mildew Results 14 Days,[17],7
same,Mildew Results 21 Days,[17],0
same,Mildew Results 28 Days,[17],0
same,Mildew Results 7 Days,[18],7
same,Mildew Results 14 Days,[18],7
same,Mildew Results 21 Days,[18],0
same,Mildew Results 28 Days,[18],0
same,Mildew Results 7 Days,[19],7
same,Mildew Results 14 Days,[19],7
same,Mildew Results 21 Days,[19],0
same,Mildew Results 28 Days,[19],0
same,Mildew Results 7 Days,[20],10
same,Mildew Results 14 Days,[20],10
same,Mildew Results 21 Days,[20],10
same,Mildew Results 28 Days,[20],10
